In US10406086B2, “Moisturizer and cosmetic including the same” (AJINOMOTO CO., INC., priority 2015, dated 2019):
Like-named read-outs stand apart in the source and are kept apart here.

Legend:
[1] = Moisture absorption/retention test; format: physicochemical; settings: for Increased weight ratio after 7 days at 35% RH (%) (B): following 65% RH; for (B)/(A) × 100(%): ratio of weight increase at 35% RH to that at 65% RH; for moisturizing power: compared with glycerol and sorbitol
Description: About 1 g of each compound was precisely weighed in a weighing bottle and the weighed samples were placed in a constant-temperature and constant-humidity chamber (LH-30-10, manufactured by NAGANO SCIENCE CO, LTD.) in which the humidity was set to 65% RH to measure a weight increase ratio (A) after 7 days. Subsequently, the same samples were placed in the constant-temperature and constant-humidity chamber in which the humidity was set to 35% RH to measure a weight increase ratio (B) after 7 days. It can be considered that, as the ratio of (B) to (A) becomes higher, more moisture can be retained even when the environment becomes low humidity and thus that the compound having the higher value of the ratio can be considered as a compound having higher moisturizing power.

[2] = system: Human normal epidermal keratinocytes NHEK (NB); assay: Cytotoxicity test (Neutral Red, cell survival rate); format: cell-based; settings: 500 μM, 24 hours; for Cell survival rate (%): relative to light absorbance of the control
Description: Human normal epidermal keratinocytes NHEK (NB) (manufactured by KURABO INDUSTRIES LTD.) were precultured with HuMedia-KG2 (manufactured by KURABO INDUSTRIES LTD.) and the precultured human normal epidermal keratinocytes were adjusted in a concentration of 15×10^4 cells/mL. After adjusting the concentration, 2 mL of the culture solution (that is, 30×10^4 cells/well) was poured to a plate having 6 wells and the poured culture solution was cultivated for 1 day. Samples (lauroyl-valine (Example 25: C12Val), decanoyl-valine (Example 26: C10Val), octanoyl-valine (Example 27: C8Val), hexanoyl-valine (Example 28: C6Val), butanoyl-valine (Example 29: C4Val), and acetyl-valine (Example 30: C2Val)) were added to the wells so that each of the samples has the concentration illustrated in respective graphs and the added samples were reacted for 24 hours. Thereafter, the culture medium was discarded and replaced with 2 mL/well of Neutral Red solution. The resultant sample was further cultured for 2 hours. As the Neutral Red solution, a solution prepared by diluting Neutral Red (manufactured by KURABO INDUSTRIES LTD.) with HuMedia-KG2 culture medium/normal saline solution (2:1) to 1/100 was used. The cells stained with the Neutral Red solution were washed with PBS (-) one time, thereafter fixed by 1.5 mL/well of 1% CaCl2/1% formalin solution, extracted by adding 1.5 mL/well of 1% acetic acid/50% ethanol solution at room temperature for 20 minutes. The light absorbance of the resultant sample was measured using a plate reader at 540/630 nm.
The following evaluation was carried out depending on the cell survival rates. The results are listed in Table 4 and illustrated in FIG. 6.

[3] = system: filaggrin gene; assay: Filaggrin gene expression test by acyl valines or acyl alanines (real time PCR, 24 hours); format: cell-based; settings: Homo sapiens
Description: Human normal epidermal keratinocytes NHEK (NB) (manufactured by KURABO INDUSTRIES LTD.) were precultured with HuMedia-KG2 (manufactured by KURABO INDUSTRIES LTD.) and the precultured human normal epidermal keratinocytes were adjusted in a concentration of 15×10^4 cells/mL. After adjusting the concentration, 2 mL of the culture solution (that is, 30×10^4 cells/well) was poured to a plate having 6 wells and the poured culture solution was cultivated for 1 day. […] C12Ala), decanoyl-alanine (Example 21: C10Ala), octanoyl-alanine (Example 22: C8Ala), hexanoyl-alanine (Example 23: C6Ala), and butanoyl-alanine (Example 24: C4Ala)) were added to the wells so that each of the samples has the concentration illustrated in respective graphs and the added samples were reacted for 24 hours. After the reaction, entire RNA was extracted from the cells and subjected to reverse transcription. The amplified amounts of the target gene (filaggrin) were measured by real time PCR (n=2). […] GAPDH was used as a corrected gene. Calculation was carried out using a comparative CT method. TaqMan (registered trademark) Gene Expression was used as a primer and a probe and FAM was used as a fluorescent dye. The following evaluation was carried out depending on the amplified amounts. The results are listed in Table 2 and 3 and illustrated in FIGS. 4 and 5.

[4] = 24 hours, NHEK (NB), control = 100%, read-out: Amplified amount (%)
[5] = 24 hours, NHEK (NB), read-out: Evaluation (amplified amount)
[6] = 10 μM, 24 hours, NHEK (NB), control = 100%, read-out: Amplified amount (%)
[7] = 10 μM, 24 hours, NHEK (NB), read-out: Evaluation (amplified amount)

OCC(O)CO [Comparative Example 3, Glycerol, reference compound]
Increased weight ratio after 7 days at 35% RH (%) (B) [1]: 13.2%
Increased weight Ratio after 7 days at 65% RH (%) (A) [1]: 48.1%
(B)/(A) × 100(%) [1]: 27.4%

CCCC(=O)N[C@H](C(=O)O)C(C)C [Example 18, butanoyl-valine]
Evaluation (cell survival rate) [2]: A (99% or higher)
Cell survival rate (%) [2]: 102%
activity at 500 µM [3, 4]: 126%
activity at 500 µM [3, 5]: 100 to 200%

CCCCCCCCCC(=O)N[C@H](C(=O)O)C(C)C [Example 15, decanoyl-valine]
Evaluation (cell survival rate) [2]: B (75% or higher and lower than 99%)
Cell survival rate (%) [2]: 75%
activity at 10 µM [3, 6]: 171%
activity at 10 µM [3, 7]: 100 to 200%

CC(=O)N[C@H](C(=O)O)C(C)C [Example 19, acetyl-valine]
Evaluation (cell survival rate) [2]: A (99% or higher)
Cell survival rate (%) [2]: 105%
activity at 500 µM [3, 4]: 141%
activity at 500 µM [3, 5]: 100 to 200%

CCCCCC(=O)N[C@H](C(=O)O)C(C)C [Example 17, hexanoyl-valine]
Evaluation (cell survival rate) [2]: A (99% or higher)
Cell survival rate (%) [2]: 99%
activity at 500 µM [3, 4]: 112%
activity at 500 µM [3, 5]: 100 to 200%

CCCCCCCC(=O)N[C@H](C(=O)[O-])C(C)C.[Na+] [Example 12, N-octanoyl-L-valine sodium salt]
Increased weight ratio after 7 days at 35% RH (%) (B) [1]: 8.4%
Increased weight Ratio after 7 days at 65% RH (%) (A) [1]: 25.4%
moisturizing power [1]: high moisturizing power
(B)/(A) × 100(%) [1]: 33.2%

CCCCCCCCCCCC(=O)N[C@@H](C)C(=O)O [Example 20, lauroyl-alanine]
activity at 10 µM ([3]; NHEK, 24 h, read-out: Amplified amount (%)): 128%
activity at 10 µM ([3]; NHEK, 24 h, read-out: Evaluation (amplified amount)): 100 to 200%

CCCCCCCC(=O)N[C@@H](C)C(=O)[O-].[Na+] [Example 13, N-octanoyl-L-alanine sodium salt]
Increased weight ratio after 7 days at 35% RH (%) (B) [1]: 10.6%
Increased weight Ratio after 7 days at 65% RH (%) (A) [1]: 29.6%
moisturizing power [1]: high moisturizing power
(B)/(A) × 100(%) [1]: 35.9%

CCCCCCCC(=O)N[C@H](C(=O)O)C(C)C [Example 16, octanoyl-valine]
Evaluation (cell survival rate) [2]: A (99% or higher)
Cell survival rate (%) [2]: 100%
activity at 500 µM [3, 4]: 302%
activity at 500 µM [3, 5]: > 200%

CCCC(=O)N[C@@H](C)C(=O)O [Example 24, butanoyl-alanine]
activity at 500 µM [3, 4]: 162%
activity at 500 µM [3, 5]: 100 to 200%

CCCCCCCCCCCC(=O)N[C@H](C(=O)O)C(C)C [Example 14, lauroyl-valine]
Evaluation (cell survival rate) [2]: D (Lower than 50%)
cytotoxicity ([2]; in words): high
Cell survival rate (%) [2]: 3%
activity at 10 µM [3, 6]: 200%
activity at 10 µM [3, 7]: > 200%

OC[C@@H](O)[C@@H](O)[C@H](O)[C@@H](O)CO [Comparative Example 4, Sorbitol, reference compound]
Increased weight ratio after 7 days at 35% RH (%) (B) [1]: 0.5%
Increased weight Ratio after 7 days at 65% RH (%) (A) [1]: 4.2%
(B)/(A) × 100(%) [1]: 12.0%

CCCCCC(=O)N[C@@H](C)C(=O)O [Example 23, hexanoyl-alanine]
activity at 500 µM [3, 4]: 125%
activity at 500 µM [3, 5]: 100 to 200%

CCCCCCCC(=O)N[C@@H](C)C(=O)O [Example 22, octanoyl-alanine]
activity at 500 µM [3, 4]: 256%
activity at 500 µM [3, 5]: > 200%

CCCCCCCCCC(=O)N[C@@H](C)C(=O)O [Example 21, decanoyl-alanine]
activity at 10 µM [3, 6]: 117%
activity at 10 µM [3, 7]: 100 to 200%
